Reference: paper PMC12040169 (PLOS Biology, 2025)

Test: in vitro
Details: human, hela cells, % viability

Compound | viability at 28.5 h, 10 µM [%]
COCCNC(=O)C1(O)c2ccccc2NC(=O)N1c1cccc(OC)c1 (stereo not shown) [CBK288589] | 110
COc1cc(Nc2cc(-n3nc(C)cc3C)ncn2)cc(OC)c1OC [CBK288594] | 93.2
CCOc1ccccc1-c1noc(-c2nn(-c3ccc(C)cc3)ccc2=O)n1 [CBK288597] | 95.7
O=C(NCCc1nc2cccnc2n1-c1ccccc1)c1ccncc1 [CBK288599] | 90.7
Fc1cc(F)cc(-c2nnc(Cc3nc(-c4ccncc4)no3)o2)c1 [CBK288602] | 98.6
CCC(=O)Nc1ccc(-n2cnc(C(=O)NCc3cccnc3)c2)nc1 [CBK288603] | 115
O=C(Cc1nnc(-c2ccncc2)o1)NCCC1=CCCCC1 [CBK288605] | 117
Cc1c(-c2noc(-c3ccc4c(c3)OCO4)n2)nnn1Cc1ccccc1 [CBK288609] | 116
COc1ccccc1CNc1nccc(-n2ccc(C)n2)n1 [CBK288611] | 111
COc1cccc(CNc2nccc(-n3nc(C)cc3C)n2)c1 [CBK288612] | 96
Cc1cc(C)n(-c2ccnc(NCc3cccnc3)n2)n1 [CBK288614] | 109
Cc1cc(C)n(-c2ccnc(NCCc3cccnc3)n2)n1 [CBK288615] | 94.7
Cc1cccc(Nc2nccc(-n3ccc(C)n3)n2)c1 [CBK288616] | 79.7
CC(C)n1cnc2ccc(-c3noc(-c4nccc5ccccc45)n3)cc21 [CBK288617] | 109
O=C(c1ccncc1)N1CCc2cc(-c3csc(C4CC4)n3)ccc21 [CBK288618] | 94.5
c1cncc(CN2CCCC(OCc3nc(-c4ccncc4)no3)C2)c1 (stereo not shown) [CBK288621] | 114
O=C(CN1C(=O)c2ccncc2C1=O)Nc1ccccn1 [CBK288624] | 89.9
O=C(Nc1nc2ccccc2[nH]1)c1ccncc1 [CBK288626] | 95.3
Cc1c(CNC(=O)c2cc(-c3ccncc3)nc3ccc(Cl)cc23)cnn1C [CBK288627] | 99.5
c1ccc(-c2nnc(C3CCNCC3)[nH]2)nc1 [CBK288629G] | 97

Compound | viability at 28.5 h, 10 µM [%]
O=C(Nc1ccc2n(c1=O)C[C@H]1C[C@@H]2CN(C(=O)Cc2cccs2)C1)c1ccccc1 [CBK288709] | 82.4
CC(=O)N1C[C@@H]2C[C@H](C1)c1ccc(NS(=O)(=O)c3cccc(F)c3)c(=O)n1C2 [CBK288710] | 105
O=C(Nc1ccc(=O)n2c1[C@@H]1C[C@@H](CN(C(=O)COc3ccccc3)C1)C2)c1cncnc1 [CBK288712] | 109
O=C(Nc1ccc(=O)n2c1[C@@H]1C[C@@H](CN(C(=O)c3ccc(F)cc3)C1)C2)c1cncnc1 [CBK288713] | 112
CC(=O)N1CCN(CC[C@@H]2CC[C@H](O)[C@@H](C(=O)N(C)Cc3ccccc3)O2)CC1 [CBK288716] | 93.3
CC(C)NC(=O)[C@H]1O[C@H](CCN2CCOCC2)CC[C@@H]1O [CBK288720] | 108
O=C([C@H]1O[C@H](CCN2CCN(c3ccccc3)CC2)CC[C@@H]1O)N1CCOCC1 [CBK288724] | 98.5
O=C(Nc1ccccc1)[C@H]1O[C@H](CCN2CCN(c3ccccc3)CC2)CC[C@@H]1O [CBK288725] | 84.1
C#CCNC(=O)[C@H]1O[C@H](CCN(C)CC#C)CC[C@@H]1O [CBK288727] | 89.6
C#CCNC(=O)[C@H]1O[C@H](CCN2CCOCC2)CC[C@@H]1O [CBK288729] | 102
O=C([C@H]1O[C@H](CCN2CCN(c3ccccn3)CC2)CC[C@@H]1O)N1CCCC1 [CBK288730] | 83.3
O=C(NCc1ccccc1)[C@H]1CN2CCC1C[C@@H]2Cn1cc(-c2ccc(F)cc2)nn1 (stereo partly shown) [CBK288736] | 87
CC(C)(C)c1cn(C[C@H]2CC3CCN2C[C@@H]3C(=O)Nc2nccs2)nn1 (stereo partly shown) [CBK288737] | 87
O=C(NC1CC1)[C@H]1CN2CCC1C[C@@H]2Cn1cc(-c2cccc(O)c2)nn1 (stereo partly shown) [CBK288738] | 79.8
O=C(NC1CC1)[C@H]1CN2CCC1C[C@@H]2Cn1cc(CC2CCCCC2)nn1 (stereo partly shown) [CBK288739] | 103
Cn1nc(C2CCCC2)cc1[C@H]1CN2CC[C@H]1C[C@@H]2CNC(=O)N1CCOCC1 [CBK288740] | 83.4
Cn1nc(C2CCCC2)cc1[C@H]1CN2CC[C@H]1C[C@@H]2CNS(=O)(=O)c1ccccc1 [CBK288741] | 96.3
CCNC(=O)NC[C@H]1C[C@@H]2CCN1C[C@@H]2c1cc(C2CCCC2)nn1C [CBK288743] | 93.6
CC(C)NC(=O)NC[C@H]1C[C@@H]2CCN1C[C@@H]2c1cc(C2CCCC2)nn1C [CBK288744] | 96.5
CC[C@H]1C[N@@]2CC[C@H]1C[C@@H]2CNS(=O)(=O)c1ccc(NC(C)=O)cc1 [CBK288745] | 82.9

Compound | viability at 28.5 h, 10 µM [%]
CC[C@H]1C[N@@]2CC[C@H]1C[C@@H]2CNS(=O)(=O)c1cccc2cccnc12 [CBK288747] | 90.6
CC[C@H]1CN2CC[C@H]1C[C@@H]2CNC(=O)Nc1cccc(C#N)c1 [CBK288748] | 87.4
C=C[C@H]1C[N@@]2CC[C@H]1C[C@@H]2CNS(=O)(=O)c1cccc(C#N)c1 [CBK288750] | 103
C=C[C@H]1C[N@@]2CC[C@H]1C[C@@H]2CNS(=O)(=O)c1cccc2cccnc12 [CBK288751] | 98.2
C#C[C@H]1C[N@@]2CC[C@H]1C[C@@H]2CNS(=O)(=O)c1cccc(C#N)c1 [CBK288753] | 106
C#C[C@H]1C[N@@]2CC[C@H]1C[C@@H]2CNC(=O)Nc1ccc(C(C)=O)cc1 [CBK288755] | 114
COc1ccc(-c2cc([C@H]3CN4CC[C@H]3C[C@@H]4CNC(C)=O)n(C)n2)cc1OC [CBK288757] | 86.3
Cc1ccc(S(=O)(=O)NC[C@H]2C[C@@H]3CC[N@]2C[C@@H]3CN2CCOCC2)cc1 [CBK288758] | 94.2
O=S(=O)(NC[C@H]1C[C@@H]2CC[N@]1C[C@@H]2CN1CCOCC1)c1cccs1 [CBK288759] | 90.7
O=S(=O)(NC[C@H]1C[C@@H]2CCN1C[C@@H]2CN1CCOCC1)c1ccccc1 [CBK288760] | 92.9
O=S(=O)(NC[C@H]1C[C@@H]2CC[N@]1C[C@@H]2CN1CCOCC1)c1ccc(Cl)cc1 [CBK288762] | 92.4
COc1ccc(S(=O)(=O)NC[C@H]2C[C@@H]3CC[N@]2C[C@@H]3CN2CCCCC2)cc1 [CBK288764] | 98.9
CC(=O)c1ccc(NC(=O)NC[C@H]2C[C@@H]3CC[N@]2C[C@@H]3CN2CCN(C)CC2)cc1 [CBK288768] | 116
COc1ccc(S(=O)(=O)NC[C@H]2C[C@@H]3CC[N@]2C[C@@H]3CN2CCSCC2)cc1 [CBK288769] | 86.6
COc1ccccc1N1CCN(C[C@H]2C[N@@]3CC[C@H]2C[C@@H]3CNS(C)(=O)=O)CC1 [CBK288770] | 87.5
CC[C@H]1CN(C(=O)c2cccnc2)CC[C@H]1CC(=O)NCc1ccc2c(c1)OCO2 [CBK288771] | 87.7
CC[C@H]1CN(C(=O)NC(C)C)CC[C@H]1CC(=O)Nc1nccs1 [CBK288774] | 109
CC[C@H]1CN(C(=O)Nc2cccc(C(F)(F)F)c2)CC[C@H]1CC(=O)O [CBK288776] | 89.3
